{"source": "ChEMBL document CHEMBL4613324", "about": "“Design, Synthesis, and Evaluation of a Series of Novel Super Long-Acting DPP-4 Inhibitors for the Treatment of Type 2 Diabetes” (J Med Chem, 2020)", "key": {"[1]": {"experiment": "Intrinsic clearance in mouse liver microsomes at 0.5 uM incubated for 0.5 to 60 mins by LC-MS/MS analysis", "assay_type": "ADME, Microsome", "conditions": "read-out: CLH"}, "[2]": {"molecular_target": "CYP2D6 (Homo sapiens, UniProt P10635)", "sequence (P10635 whole entry)": "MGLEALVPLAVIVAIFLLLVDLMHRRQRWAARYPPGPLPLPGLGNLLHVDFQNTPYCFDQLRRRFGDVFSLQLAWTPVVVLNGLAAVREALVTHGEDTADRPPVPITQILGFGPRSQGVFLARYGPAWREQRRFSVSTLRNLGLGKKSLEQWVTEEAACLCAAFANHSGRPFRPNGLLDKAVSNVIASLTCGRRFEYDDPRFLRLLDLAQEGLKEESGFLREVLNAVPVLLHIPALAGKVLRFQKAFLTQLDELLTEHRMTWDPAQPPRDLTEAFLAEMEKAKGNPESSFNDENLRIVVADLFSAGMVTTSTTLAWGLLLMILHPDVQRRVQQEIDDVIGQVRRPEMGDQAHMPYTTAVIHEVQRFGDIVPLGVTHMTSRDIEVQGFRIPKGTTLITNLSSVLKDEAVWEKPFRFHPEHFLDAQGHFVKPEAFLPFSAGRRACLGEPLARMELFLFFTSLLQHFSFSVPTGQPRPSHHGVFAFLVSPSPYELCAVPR", "experiment": "Stability assessed as recombinant human CYP2D6 mediated compound metabolism by measuring parent compound remaining after 30 mins relative to control", "assay_type": "ADME", "conditions": "read-out: Stability"}, "[3]": {"molecular_target": "Cytochrome P450 3A4 (Homo sapiens, UniProt P08684)", "sequence (P08684 whole entry)": "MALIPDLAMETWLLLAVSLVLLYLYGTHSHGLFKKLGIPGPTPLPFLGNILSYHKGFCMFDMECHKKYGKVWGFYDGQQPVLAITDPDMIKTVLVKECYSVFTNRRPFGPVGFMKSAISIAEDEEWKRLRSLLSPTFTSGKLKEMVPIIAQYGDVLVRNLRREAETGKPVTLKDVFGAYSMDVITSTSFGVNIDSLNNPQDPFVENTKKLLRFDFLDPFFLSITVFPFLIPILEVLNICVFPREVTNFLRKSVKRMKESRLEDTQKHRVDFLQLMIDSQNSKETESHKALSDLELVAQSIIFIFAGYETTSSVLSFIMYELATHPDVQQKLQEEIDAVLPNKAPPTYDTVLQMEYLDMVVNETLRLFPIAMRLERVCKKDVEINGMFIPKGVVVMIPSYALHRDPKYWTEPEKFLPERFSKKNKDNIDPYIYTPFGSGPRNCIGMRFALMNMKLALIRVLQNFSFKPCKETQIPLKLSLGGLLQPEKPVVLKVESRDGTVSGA", "experiment": "Inhibition of recombinant human CYP3A4 using midazolam as substrate", "assay_type": "ADME"}, "[4]": {"molecular_target": "T1, Cytochrome P450 2B6 (Homo sapiens, UniProt P20813)", "T1 sequence (P20813 whole entry)": "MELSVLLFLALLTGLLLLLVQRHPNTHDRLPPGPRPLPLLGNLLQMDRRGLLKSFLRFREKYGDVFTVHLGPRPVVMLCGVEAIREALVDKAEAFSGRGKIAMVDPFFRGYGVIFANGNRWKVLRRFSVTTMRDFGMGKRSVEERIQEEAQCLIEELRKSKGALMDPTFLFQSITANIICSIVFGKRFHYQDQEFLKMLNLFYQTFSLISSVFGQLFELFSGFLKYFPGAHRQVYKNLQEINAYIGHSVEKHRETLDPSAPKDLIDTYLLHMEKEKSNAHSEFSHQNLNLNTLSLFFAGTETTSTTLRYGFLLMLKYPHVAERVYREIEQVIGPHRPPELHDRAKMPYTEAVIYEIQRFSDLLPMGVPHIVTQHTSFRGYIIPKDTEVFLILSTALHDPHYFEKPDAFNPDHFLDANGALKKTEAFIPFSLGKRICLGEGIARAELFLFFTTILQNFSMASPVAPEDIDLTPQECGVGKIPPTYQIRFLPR", "experiment": "Inhibition of recombinant human CYP2B6", "assay_type": "ADME"}, "[5]": {"molecular_target": "T2, Cytochrome P450 2A6 (Homo sapiens, UniProt P11509)", "T2 sequence (P11509 whole entry)": "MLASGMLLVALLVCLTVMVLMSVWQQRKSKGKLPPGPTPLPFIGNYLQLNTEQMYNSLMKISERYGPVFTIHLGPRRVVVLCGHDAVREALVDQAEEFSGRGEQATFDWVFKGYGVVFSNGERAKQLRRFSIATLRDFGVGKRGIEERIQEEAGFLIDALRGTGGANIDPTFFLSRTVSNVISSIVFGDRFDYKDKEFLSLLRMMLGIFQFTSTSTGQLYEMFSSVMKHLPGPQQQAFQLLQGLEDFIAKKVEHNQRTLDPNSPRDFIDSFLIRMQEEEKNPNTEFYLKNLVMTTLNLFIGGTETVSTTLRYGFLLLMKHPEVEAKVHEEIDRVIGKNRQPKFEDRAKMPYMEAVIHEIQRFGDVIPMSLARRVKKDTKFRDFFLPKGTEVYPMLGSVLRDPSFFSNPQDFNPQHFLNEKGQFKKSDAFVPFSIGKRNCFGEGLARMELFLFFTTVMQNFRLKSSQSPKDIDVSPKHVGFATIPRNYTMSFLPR", "experiment": "Inhibition of recombinant human CYP2A6", "assay_type": "ADME"}, "[6]": {"molecular_target": "Cytochrome P450 2E1 (Homo sapiens, UniProt P05181)", "sequence (P05181 whole entry)": "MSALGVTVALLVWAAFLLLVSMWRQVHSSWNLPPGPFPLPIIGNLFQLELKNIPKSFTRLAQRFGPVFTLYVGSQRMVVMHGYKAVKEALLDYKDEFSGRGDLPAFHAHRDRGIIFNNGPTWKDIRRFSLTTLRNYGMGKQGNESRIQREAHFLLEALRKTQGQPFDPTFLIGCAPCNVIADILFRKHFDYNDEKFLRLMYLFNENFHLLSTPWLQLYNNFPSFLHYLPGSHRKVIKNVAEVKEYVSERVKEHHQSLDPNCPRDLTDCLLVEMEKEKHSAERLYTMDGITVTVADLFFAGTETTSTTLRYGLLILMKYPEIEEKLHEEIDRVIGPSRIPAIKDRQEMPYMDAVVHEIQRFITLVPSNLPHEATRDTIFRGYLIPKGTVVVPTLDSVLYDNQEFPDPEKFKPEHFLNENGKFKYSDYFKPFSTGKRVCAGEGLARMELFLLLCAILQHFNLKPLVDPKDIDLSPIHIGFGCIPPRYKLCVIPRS", "experiment": "Inhibition of recombinant human CYP2E1", "assay_type": "ADME"}}, "data": [{"smiles": "CS(=O)(=O)n1cc2c(n1)CN([C@@H]1C[C@H](N)[C@@H](c3cc(F)ccc3F)O[C@@H]1C(F)(F)F)C2", "note": "[COFROGLIPTIN]", "values": [{"measurement": "microsomal CLint at 0.5 µM", "setting": "[1]", "result": 0.8, "unit": "µL/min/mg"}, {"measurement": "remaining at 0.5 h", "setting": "[2]", "result": "> 95", "unit": "%"}, {"measurement": "IC50", "setting": "[3]", "result": "> 100", "unit": "µM"}, {"measurement": "IC50", "setting": "[4]", "result": "> 100", "unit": "µM"}, {"measurement": "IC50", "setting": "[5]", "result": "> 100", "unit": "µM"}, {"measurement": "IC50", "setting": "[6]", "result": "> 100", "unit": "µM"}]}]}
